Laboratory results reported in PubChem BioAssay AID2060493 (Molecular Pharmacology Branch, DTP, NCI, 2025).
Several values for one entry are separate records, joined by “and”; a condition that tells them apart may be missing. Equal values may be shown once.

Tested on: 616215-338-R-J1-PDC tumor spheroids, viability
Assay: Anticancer human tumor 616215-338-R-J1-PDC patient-derived colon adenocarcinoma cell line growth inhibition [GQUAD]
Conditions: spheroids with HUVEC and MSC; for viability, T/C: stronger effect = lower value
From the text: DNA G-quadruplex Stabilizer Agents in Combinations in Complex Spheroids
A high-throughput screen of multi-cell type tumor spheroids was designed to identify active combinations of DNA G-quadruplex stabilizer agents and targeted small molecules. Complex spheroids include a stromal component modeled by human endothelial cells (HUVEC) and fibroblasts modeled by human mesenchymal stem cells (MSCs). The concentration ranges selected for each drug and investigational agent were based upon clinically achievable concentrations if the clinical Cmax of the agent was known.
Compounds. The drugs and investigational agents: pidnarulex (CX-5461; NSC782164), APTO-253 (NSC789042), BRACO-19 (NSC847499), peposertib (NSC802822), ceralasertib (NSC780249), elimusertib (NSC800525), camonsertib (NSC841442), AZD-1390 (NSC803789), olaparib (NSC753686), talazoparib (NSC767125), ART-558 (NSC835418), sotorasib (NSC818433), MRTX-1133 (NSC836407), SN-38 (NSC673596), topotecan (NSC609699), etoposide (NSC141540), doxorubicin (NSC123127), gemcitabine (NSC613327), 5-fluorouracil (NSC19893), paclitaxel (NSC125973), vemurafenib (NSC761431), panobinostat (NSC761190), R-306465 (JNJ-16241199; NSC773264), adavosertib (NSC754352), TP-3654 (NSC805149), carboplatin (NSC241240), KSQ-4279 (NSC840948), and staurosporine (NSC755774) were obtained from the National Cancer Institute (NCI) Developmental Therapeutics Program Chemical Repository (34). The FDA-approved anticancer drug set is available from the NCI Developmental Therapeutics Program. […] The stock solutions were prepared in dimethyl sulfoxide (DMSO, Sigma-Aldrich, St. Louis, MO, cat. D2650) at 800-fold the tested concentration and stored at -70 degrees C prior to their use. All drugs and investigational agents were tested over a range starting from a high concentration at or near the clinical Cmax and decreasing in half-log increments. If the clinical Cmax for an agent had not been determined, the highest concentration tested was 10 microM.
2.3 Cell Culture. All cells were maintained in an incubator at 37 degrees C and 5% CO2 with 95% humidity. The PDC lines were cultured according to standard operating procedures established by the NCI PDMR. All PDCs were thawed and cultured in Matrigel-coated flasks prepared with a working solution of 1X Ham's F-12 nutrient mix, without supplementation (Invitrogen, cat. 11765054), 100 U/mL penicillin-streptomycin (Invitrogen, cat. 15140122), and 2.5% Matrigel (Corning Inc., cat. 354248) for the first three passages. The 857933-349-R-J2-PDC line was cultured in 6C/Colon 1B media, which includes advanced DMEM/F-12 (Thermo Fisher Scientific, cat. 12634028), 10 mM HEPES (Thermo Fisher Scientific, cat. 15630080), 1X GlutaMAX supplement (Thermo Fisher Scientific, cat. 35050061), 0.1 mg/mL primocin (InvivoGen, cat. ant-pm-2), 10% defined fetal bovine serum, heat inactivated (HyClone Laboratories Inc., cat. SH30070.03HI), 50% L-WRN conditioned media (ATCC, cat. CRL-3276), 1.25 mM N-Acetyl-L-cysteine (Sigma-Aldrich, cat. A9165), 10 mM nicotinamide (Sigma-Aldrich, cat. N0636), 1X B-27 supplement (Thermo Fisher Scientific, cat. 17504044), 1X N-2 supplement (Thermo Fisher Scientific, cat. 17502048), 10 microM Y-27632 dihydrochloride (Tocris Bioscience, cat. 1254), and 50 ng/mL human EGF recombinant protein (Thermo Fisher Scientific, cat. PHG0311). The 485176-168-R4-J1-PDC line was cultured in Panc media, which includes all 6C/Colon 1B media components plus 100 ng/mL human FGF-10 (Thermo Fisher Scientific, cat. 100-26), 500 nM SB-431542 (Selleckchem, cat. S1067), and gastrin (Tocris, cat. 3006).
[…]
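Further: spheroids exposed to agents for 7 days before readout.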
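Wherever viability, T/C is given: percent viability relative to DMSO vehicle control wells taken as 100%.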

With `O=C(NO)c1cnc(N2CCN(S(=O)(=O)c3ccc4ccccc4c3)CC2)nc1` as the molecule, how does the viability, T/C (compound 0.0316 µM) read?
Its viability, T/C is 101% and 114% and 112%.

And the viability, T/C (compound 0.1 µM)?
Its viability, T/C is 96.7% and 102% and 94.6%.

And the viability, T/C (compound 0.316 µM)?
Its viability, T/C is 53.2% (2×) and 60.8%.

What about the viability, T/C (compound 1 µM) of the same molecule?
Its viability, T/C is 1.44% and 0.67% and 2.74%.

And the viability, T/C (compound 3.16 µM)?
The viability, T/C was 0.23% and 0.21% and 0.06%.

What about the viability, T/C (compound 10 µM) of the same molecule?
Its viability, T/C is 0.22% and 0.09%.

And the IC50 (curve of compound)?
The IC50 was 0.339 µM and 0.331 µM and 0.38 µM.

With `CC[C@@]1(O)C(=O)OCc2c1cc1n(c2=O)Cc2cc3c(CN(C)C)c(O)ccc3nc2-1` + Cc1cnc(CNC(=O)c2c(=O)c3ccc(N4CCCN(C)CC4)nc3n3c2sc2ccccc23)cn1 as the molecule, how does the IC50 (curve of first compound, second compound 0.0316 µM) read?
Its IC50 is 0.274 µM.

And the IC50 (curve of first compound, second compound 0.1 µM)?
The IC50 was 0.142 µM.

What about the IC50 (curve of first compound, second compound 0.316 µM) of the same molecule?
Its IC50 is < 0.000999 µM.

And the IC50 (curve of first compound, second compound 1 µM)?
Its IC50 is < 0.000999 µM.

What about the IC50 (curve of first compound, second compound 3.16 µM) of the same molecule?
Its IC50 is < 0.000999 µM.

What about the IC50 (curve of first compound, second compound 10 µM) of the same molecule?
Its IC50 is < 0.000999 µM.

And the viability, T/C (second compound 0.0316 µM, first compound 0.000999 µM)?
The viability, T/C was 116%.

And the viability, T/C (second compound 0.0316 µM, first compound 0.00316 µM)?
The viability, T/C was 102%.

What about the viability, T/C (second compound 0.0316 µM, first compound 0.00999 µM) of the same molecule?
The viability, T/C was 92.5%.

And the viability, T/C (second compound 0.0316 µM, first compound 0.0316 µM)?
Its viability, T/C is 94.9%.

What about the viability, T/C (second compound 0.0316 µM, first compound 0.0999 µM) of the same molecule?
The viability, T/C was 87%.

What about the viability, T/C (second compound 0.0316 µM, first compound 0.316 µM) of the same molecule?
The viability, T/C was 43.7%.

And the viability, T/C (second compound 0.1 µM, first compound 0.000999 µM)?
The viability, T/C was 81.5%.

What about the viability, T/C (second compound 0.1 µM, first compound 0.00316 µM) of the same molecule?
The viability, T/C was 68.1%.

What about the viability, T/C (second compound 0.1 µM, first compound 0.00999 µM) of the same molecule?
Its viability, T/C is 64.2%.

What about the viability, T/C (second compound 0.1 µM, first compound 0.0316 µM) of the same molecule?
Its viability, T/C is 74.8%.

What about the viability, T/C (second compound 0.1 µM, first compound 0.0999 µM) of the same molecule?
The viability, T/C was 54.1%.

What about the viability, T/C (second compound 0.1 µM, first compound 0.316 µM) of the same molecule?
Its viability, T/C is 35.4%.

And the viability, T/C (second compound 0.316 µM, first compound 0.000999 µM)?
Its viability, T/C is 38.5%.

And the viability, T/C (second compound 0.316 µM, first compound 0.00316 µM)?
Its viability, T/C is 45.3%.

And the viability, T/C (second compound 0.316 µM, first compound 0.00999 µM)?
Its viability, T/C is 39.2%.

And the viability, T/C (second compound 0.316 µM, first compound 0.0316 µM)?
The viability, T/C was 40.5%.

And the viability, T/C (second compound 0.316 µM, first compound 0.0999 µM)?
Its viability, T/C is 53.4%.

And the viability, T/C (second compound 0.316 µM, first compound 0.316 µM)?
The viability, T/C was 40.2%.

And the viability, T/C (second compound 1 µM, first compound 0.000999 µM)?
Its viability, T/C is 36.9%.

And the viability, T/C (second compound 1 µM, first compound 0.00316 µM)?
The viability, T/C was 38.4%.

What about the viability, T/C (second compound 1 µM, first compound 0.00999 µM) of the same molecule?
Its viability, T/C is 32.4%.

What about the viability, T/C (second compound 1 µM, first compound 0.0316 µM) of the same molecule?
The viability, T/C was 27.7%.

And the viability, T/C (second compound 1 µM, first compound 0.0999 µM)?
The viability, T/C was 24.9%.

And the viability, T/C (second compound 1 µM, first compound 0.316 µM)?
Its viability, T/C is 25.3%.

What about the viability, T/C (second compound 3.16 µM, first compound 0.000999 µM) of the same molecule?
The viability, T/C was 37.1%.

And the viability, T/C (second compound 3.16 µM, first compound 0.00316 µM)?
Its viability, T/C is 36.5%.

What about the viability, T/C (second compound 3.16 µM, first compound 0.00999 µM) of the same molecule?
Its viability, T/C is 31.6%.

What about the viability, T/C (second compound 3.16 µM, first compound 0.0316 µM) of the same molecule?
The viability, T/C was 34.2%.

And the viability, T/C (second compound 3.16 µM, first compound 0.0999 µM)?
The viability, T/C was 29.3%.

What about the viability, T/C (second compound 3.16 µM, first compound 0.316 µM) of the same molecule?
The viability, T/C was 18.5%.

And the viability, T/C (second compound 10 µM, first compound 0.000999 µM)?
Its viability, T/C is 31.9%.

What about the viability, T/C (second compound 10 µM, first compound 0.00316 µM) of the same molecule?
Its viability, T/C is 25%.

What about the viability, T/C (second compound 10 µM, first compound 0.00999 µM) of the same molecule?
The viability, T/C was 42.2%.

What about the viability, T/C (second compound 10 µM, first compound 0.0316 µM) of the same molecule?
The viability, T/C was 24.2%.

What about the viability, T/C (second compound 10 µM, first compound 0.0999 µM) of the same molecule?
The viability, T/C was 25.3%.

What about the viability, T/C (second compound 10 µM, first compound 0.316 µM) of the same molecule?
The viability, T/C was 16.1%.

How did the viability, T/C (compound 0.0316 µM) turn out when `C=CC(=O)N1CCN(c2nc(=O)n(-c3c(C)ccnc3C(C)C)c3nc(-c4c(O)cccc4F)c(F)cc23)C(C)C1` (stereo not given) was run?
Its viability, T/C is 104% and 97.8% and 91.6%.

What about the viability, T/C (compound 0.1 µM) of the same molecule?
The viability, T/C was 90.8% and 91.2% and 98.1%.

What about the viability, T/C (compound 0.316 µM) of the same molecule?
The viability, T/C was 90.4% and 93.1% and 102%.

What about the viability, T/C (compound 1 µM) of the same molecule?
Its viability, T/C is 94.2% and 93.5% and 95.7%.

And the viability, T/C (compound 3.16 µM)?
The viability, T/C was 91.2% and 93.4% and 92.8%.

And the viability, T/C (compound 10 µM)?
The viability, T/C was 68.1% and 71.2% and 75.3%.

What about the IC50 (curve of compound) of the same molecule?
The IC50 was > 10 µM.

How did the viability, T/C (compound 0.0316 µM) turn out when `O=c1[nH]cc(F)c(=O)[nH]1` was run?
The viability, T/C was 108% and 102% and 111%.

And the viability, T/C (compound 0.1 µM)?
The viability, T/C was 94.5% and 99.6% and 87%.

And the viability, T/C (compound 0.316 µM)?
The viability, T/C was 68.3% and 78.9% and 59.7%.

What about the viability, T/C (compound 1 µM) of the same molecule?
The viability, T/C was 40.8% and 52.1% and 38%.

And the viability, T/C (compound 3.16 µM)?
The viability, T/C was 39.3% and 43.9% and 33.4%.

And the viability, T/C (compound 10 µM)?
The viability, T/C was 38.3% and 41.7% and 35.4%.

What about the IC50 (curve of compound) of the same molecule?
Its IC50 is 0.729 µM and 1.28 µM and 0.523 µM.

`CC(=O)O[C@H]1C(=O)[C@@]2(C)[C@H]([C@H](OC(=O)c3ccccc3)[C@]3(O)C[C@H](OC(=O)[C@H](O)[C@@H](NC(=O)c4ccccc4)c4ccccc4)C(C)=C1C3(C)C)[C@]1(OC(C)=O)CO[C@@H]1C[C@@H]2O` was tested. Which viability, T/C (compound 0.0316 µM) did it give?
Its viability, T/C is 18.6% and 23.3% and 49.7%.

And the viability, T/C (compound 0.1 µM)?
The viability, T/C was 15.1% and 16.7% and 22.2%.

And the viability, T/C (compound 0.316 µM)?
Its viability, T/C is 14.9% and 20% and 21.1%.

What about the viability, T/C (compound 1 µM) of the same molecule?
Its viability, T/C is 18% and 14.6% and 17.4%.

And the viability, T/C (compound 3.16 µM)?
Its viability, T/C is 13.8% and 14.9% and 15.3%.

And the viability, T/C (compound 10 µM)?
The viability, T/C was 13.3% and 15.2% and 14.8%.

And the IC50 (curve of compound)?
The IC50 was < 0.0316 µM.
